Experimental findings from patent US20240294543A1, “CYCLOHEPTA-THIENO-DIAZEPINE DERIVATIVES AS GABA A GAMMA1 PAM” (Hoffmann-La Roche Inc., priority 2021, published 2024) are described below.

Assay [1] deals with human GABAA α5β2γ1 receptor (Homo sapiens (Human), UniProt P31644+Q8N1C3). Description: Radioligand binding assay, competition for [3H]RO7239181, γ1-containing GABAA subtypes.
Assay [2] has as its target human GABAA α2β2γ1 receptor (Homo sapiens (Human), UniProt P47869+Q8N1C3). Described as above.
Assay [3] concerns the target human GABAA α1β3γ2 receptor (Homo sapiens (Human), UniProt P14867+P18507). Briefly: Radioligand binding assay, competition for [3H]Flumazenil, γ2-containing GABAA subtypes. The following applies: for γ2/γ1 Selectivity Ratio: Ki α1β3γ2 (nM)/Ki α2β2γ1 (nM); for LogSel: Log[Ki α1β3γ2 (nM)/Ki α2β2γ1 (nM)]. In short, it runs like this: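 Competition against [3H]Flumazenil binding in HEK293F cells transiently expressing human α1β3γ2 receptors, pellets resuspended in mannitol buffer pH 7,2-7,4. Incubated to equilibrium 1 hour at 4° C, filtered and washed with ice-cold 50 mM Tris pH 7.5, bound radioactivity by liquid scintillation counting. Ki values are means of two determinations.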

Where [4] appears, read: Ki h-GABAA α2β2γ1, membranes of HEK293F cells, [3H]RO7239181 20-30 nM, Table 1.
Setting [5] is: Ki h-GABAA α2β2γ1, membranes of HEK293F cells, [3H]RO7239181 20-30 nM, Table 2.
Where [6] appears, read: HEK293F cells, [3H]Flumazenil 1 nM, Table 1, read-out: Ki h-GABAA α1β3γ2.

pKi: −log10 of the molar value. Where two headings read alike, the source gives them in different places.

The term pKi denotes the negative decadic logarithm of the Ki, by convention in mol/L. With `C[C@@H]1N=C(c2c(F)cccc2F)c2c(sc3c2COCCC3)-n2cc(C(=O)NCCO)nc21` [Example 66, (7S)-9-(2,6-difluorophenyl)-N-(2-hydroxyethyl)-7-methyl-13-oxa-18-thia-2,5,8-triazatetracyclo[8.8.0.02,6.011,17]octadeca-1(10),3,5,8,11(17)-pentaene-4-carboxamide], the pKi in assay [1] is 8.53; in assay [2] (setting [4]) it was 7.83; in assay [2] (setting [5]), 7.83; in assay [3] (setting [6]), 5.60. In addition, the “γ2/γ1 Selectivity Ratio” value in assay [3] (Table 1) is 170.6. Also, the LogSel in assay [3] (Table 1) was 2.23.
With `C[C@@H]1N=C(c2c(F)cccc2F)c2c(sc3c2COCCC3)-n2nc(C(=O)NCC3(O)CC3)nc21` [Example 62, (7S)-9-(2,6-difluorophenyl)-N-[(1-hydroxycyclopropyl)methyl]-7-methyl-13-oxa-18-thia-2,3,5,8-tetrazatetracyclo[8.8.0.02,6.011,17]octadeca-1(10),3,5,8,11(17)-pentaene-4-carboxamide], the negative-log Ki (pKi) is 8.23 in assay [1], 7.61 in assay [2] (setting [4]), 7.61 in assay [2] (setting [5]) and 5.31 in assay [3] (setting [6]). Further, the “γ2/γ1 Selectivity Ratio” value in assay [3] (Table 1) came out at 200.3. Moreover, the LogSel in assay [3] (Table 1) is listed as 2.30.
Turning to `Cc1nnc2n1-c1sc3c(c1C(c1c(F)cccc1F)=N[C@H]2C)COCCO3` [Example 21, (7S)-9-(2,6-difluorophenyl)-3,7-dimethyl-13,16-dioxa-18-thia-2,4,5,8-tetrazatetracyclo[8.8.0.02,6.011,17]octadeca-1(10),3,5,8,11(17)-pentaene], the negative-log Ki (pKi) in assay [1] was 8.63; in assay [2] (Ki h-GABAA α2β2γ1, Table 3, reference compounds and examples), 7.69; in assay [2] (setting [4]), 7.69; in assay [2] (setting [5]) it was 7.69; in assay [3] it was 5.87; in assay [3] (read-out: Ki h-GABAA α1β3γ2, Table 3, reference compounds and examples), 5.87. For the same compound, the “γ2/γ1 Selectivity Ratio” value in assay [3] (Table 1) and in assay [3] (Table 3) was 67.2 in each case. The LogSel in assay [3] (Table 1) was 1.83; in assay [3] (Table 3), 1.8.
For `Cc1nnc2n1-c1sc3c(c1C(c1c(F)cccc1F)=N[C@H]2C)CCCC[C@@H]3F` (single isomer, unassigned) [Example 12], the negative-log Ki (pKi) is 8.58 in assay [1], 7.47 in assay [2] (setting [4]), 7.47 in assay [2] (setting [5]) and 6.00 in assay [3]. Also, the “γ2/γ1 Selectivity Ratio” value in assay [3] (Table 1) was determined as 29.9. The compound further had a LogSel in assay [3] (Table 1) of 1.48.
Take `Cc1nnc2n1-c1sc3c(c1C(c1c(F)cccc1F)=N[C@H]2C)OCCCC3` [Example 33, (7S)-9-(2,6-difluorophenyl)-3,7-dimethyl-12-oxa-18-thia-2,4,5,8-tetrazatetracyclo[8.8.0.02,6.011,17]octadeca-1(10),3,5,8,11(17)-pentaene]: the pKi in assay [1] is 7.66; in assay [2] (setting [4]), 7.25; in assay [2] (setting [5]) it was 7.25; in assay [3] it was 5.43. In addition, in assay [3] (Table 1), the “γ2/γ1 Selectivity Ratio” value was 66.5. In assay [3] (Table 1), this compound registered a LogSel of 1.82.
As to `C[C@@H]1N=C(c2c(F)cccc2F)c2c(sc3c2COCCC3)-n2nc(C(=O)NC[C@@](C)(O)C(F)(F)F)nc21` [Example 70, (7S)-9-(2,6-difluorophenyl)-7-methyl-N-[(2R)-3,3,3-trifluoro-2-hydroxy-2-methyl-propyl]-13-oxa-18-thia-2,3,5,8-tetrazatetracyclo[8.8.0.02,6.011,17]octadeca-1(10),3,5,8,11(17)-pentaene-4-carboxamide], the negative-log Ki (pKi) in assay [1] was 8.24; in assay [2] (setting [4]), 7.30; in assay [2] (setting [5]) it was 7.30; in assay [3] (setting [6]) it was 5.45. In addition, the “γ2/γ1 Selectivity Ratio” value in assay [3] (Table 1) was found to be 71.1. The compound further gave a LogSel in assay [3] (Table 1) of 1.85.
For the compound `C[C@@H]1N=C(c2c(F)cccc2F)c2c(sc3c2CCCCC3)-n2ccc(=O)nc21` [Example 7, (8S)-10-(2,6-difluorophenyl)-8-methyl-19-thia-2,6,9-triazatetracyclo[9.8.0.02,7.012,18]nonadeca-1(11),3,6,9,12(18)-pentaen-5-one], the negative logarithm of the Ki (pKi) in assay [1] was 8.65; in assay [2] (setting [4]) it was 7.43; in assay [2] (setting [5]), 7.43; in assay [3], 5.11. Besides, in assay [3] (Table 1), the “γ2/γ1 Selectivity Ratio” value was 205.1. In assay [3] (Table 1), the LogSel is given as 2.31.
With `Cc1cn2c(nc1=O)[C@H](C)N=C(c1c(F)cccc1F)c1c-2sc2c1CCCCC2` [Example 26, (8S)-10-(2,6-difluorophenyl)-4,8-dimethyl-19-thia-2,6,9-triazatetracyclo[9.8.0.02,7.012,18]nonadeca-1(11),3,6,9,12(18)-pentaen-5-one], the pKi in assay [1] was 8.42; in assay [2] (setting [4]), 7.49; in assay [2] (setting [5]), 7.49; in assay [3], 5.22. Further, the “γ2/γ1 Selectivity Ratio” value in assay [3] (Table 1) was 188.9. Moreover, the LogSel in assay [3] (Table 1) stood at 2.28.
Consider `C[C@@H]1N=C(c2c(F)cccc2F)c2c(sc3c2COCCC3)-n2cc(C(=O)NCC3(O)CC3)nc21` [Example 68, (7S)-9-(2,6-difluorophenyl)-N-[(1-hydroxycyclopropyl)methyl]-7-methyl-13-oxa-18-thia-2,5,8-triazatetracyclo[8.8.0.02,6.011,17]octadeca-1(10),3,5,8,11(17)-pentaene-4-carboxamide], for which the pKi is 8.53 in assay [1], 7.97 in assay [2] (setting [4]), 7.97 in assay [2] (setting [5]) and 5.70 in assay [3] (setting [6]). For the same compound, in assay [3] (Table 1), the “γ2/γ1 Selectivity Ratio” value was 187.5. This compound also displayed a LogSel in assay [3] (Table 1) of 2.27.
As for `C[C@@H]1N=C(c2c(F)cccc2F)c2c(sc3c2COCCO3)-n2nc(C(=O)N3CCC3)nc21` [Example 22, azetidin-1-yl-[(7S)-9-(2,6-difluorophenyl)-7-methyl-13,16-dioxa-18-thia-2,3,5,8-tetrazatetracyclo[8.8.0.02,6.011,17]octadeca-1(10),3,5,8,11(17)-pentaen-4-yl]methanone], the pKi in assay [1] is 8.95; in assay [2] (setting [4]), 8.00; in assay [2] (setting [5]) it was 8.00; in assay [3] (setting [6]) it was 5.52. In assay [3] (Table 1), the “γ2/γ1 Selectivity Ratio” value worked out at 304.3. This compound also displayed a LogSel in assay [3] (Table 1) of 2.48.
Turning to `C[C@@H]1N=C(c2c(F)cccc2F)c2c(sc3c2COCCO3)-n2nc(C(=O)NCC(C)(C)O)nc21` [Example 45, (7S)-9-(2,6-difluorophenyl)-N-(2-hydroxy-2-methyl-propyl)-7-methyl-13,16-dioxa-18-thia-2,3,5,8-tetrazatetracyclo[8.8.0.02,6.011,17]octadeca-1(10),3,5,8,11(17)-pentaene-4-carboxamide], the pKi in assay [1] is 8.49; in assay [2] (setting [4]), 7.87; in assay [2] (setting [5]), 7.87; in assay [3] (setting [6]) it was 5.50. In addition, in assay [3] (Table 1), the “γ2/γ1 Selectivity Ratio” value is 232.1. Besides, the LogSel in assay [3] (Table 1) was 2.37.
With `CCNC(=O)c1nc2n(n1)-c1sc3c(c1C(c1c(F)cccc1F)=N[C@H]2C)COCCO3` [Example 37, (7S)-9-(2,6-difluorophenyl)-N-ethyl-7-methyl-13,16-dioxa-18-thia-2,3,5,8-tetrazatetracyclo[8.8.0.02,6.011,17]octadeca-1(10),3,5,8,11(17)-pentaene-4-carboxamide], the negative-log Ki (pKi) in assay [1] was 8.49; in assay [2] (setting [4]) it was 7.47; in assay [2] (setting [5]), 7.47; in assay [3] (setting [6]), 5.39. Moreover, the “γ2/γ1 Selectivity Ratio” value in assay [3] (Table 1) was determined as 121.1. For the same compound, the LogSel in assay [3] (Table 1) was 2.08.
